Values of other authors in US9050341B2, “Methods of treating drug resistant and other tumors by administering 6,7-dialkoxy quinazoline derivatives” (NATCO PHARMA LIMITED, priority 2009, dated 2015).
Where a name gives a salt, the structure may show the parent alone.

Conditions: beagle dogs; source not stated; cited from earlier work

C#Cc1cccc(Nc2ncnc3cc(OCCOC)c(OCCOC)cc23)c1 [Erlotinib HCl, N-(3-Ethylnylphenyl)-6,7-bis(2-methoxyethoxy)-4-quinazolinamine]
no observed adverse effect level (NOAEL), corresponding value: 5 mg/kg b.wt/day
